Square brackets hold non-standard residues; d marks the D form. Peptide text beside a SMILES is read from it.
What was measured:
[1] = tested on: Male Sprague-Dawley rats; assay: Spontaneous growth hormone secretory pulses in conscious rats; format: in vivo, rat; conditions: 300 μg/hr i.v. infusion for two hours
Experimental: Evaluation in conscious rats. Male Sprague-Dawley rats are fitted so as to allow efficient intravenous treatment with control and test compounds as well as frequent blood sampling. Blood samples are tested for growth hormone (GH) levels by radioimmunoassay. Blood samples are taken over a 12 hour period. At a 6 hour time point, peptide 1 is infused intravenously (300 μg/hr) into conscious, freely moving male rats for two hours. Control animals receive saline infusions over the same time period. […] It is known, SRIF is required for growth hormone pulsatility and that an SRIF antagonist abolishes said pulsatility (see Tannenbaum, G. S. and Ling, N., Endocrinology, 115, 1952-1957, 1984, incorporated herein by reference).

[2] = biological target: T1, S. cerevisiae (yeast) cells expressing SRIF receptors (Rattus norvegicus, UniProt P30680); assay: Yeast bioassay for SRIF antagonist activity (LY364 cells growing in response to SRIF, zone of growth inhibition); format: cell-based; conditions: Sample type 4th iteration; 10 μL of 5 mg/mL on disk, SRIF 10 nM, read after 3 days
T1 construct: expressed in transfected cells; host or cells: S. cerevisiae strain LY364
T1 sequence (P30680 whole entry): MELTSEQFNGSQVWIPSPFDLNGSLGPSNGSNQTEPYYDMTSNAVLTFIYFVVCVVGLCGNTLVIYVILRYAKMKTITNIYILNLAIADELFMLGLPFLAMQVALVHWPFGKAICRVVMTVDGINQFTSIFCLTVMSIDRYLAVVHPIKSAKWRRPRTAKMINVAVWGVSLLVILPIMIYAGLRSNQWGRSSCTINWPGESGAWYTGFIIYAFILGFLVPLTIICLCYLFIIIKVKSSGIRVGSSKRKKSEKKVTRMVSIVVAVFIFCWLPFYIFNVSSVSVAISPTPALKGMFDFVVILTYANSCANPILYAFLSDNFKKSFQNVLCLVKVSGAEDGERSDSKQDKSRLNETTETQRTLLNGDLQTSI
Description: SRIF antagonist assay using S. cerevisiae (yeast) cells expressing SRIF receptors that grow in response to SRIF
Agar plates containing LY364 cells that are growing in the presence of added SRIF are the basis for a sensitive SRIF antagonist assay, whereby zones of growth inhibition result from the addition of SRIF antagonists to the surface of the agar plate (see L. A. Price, et al., Molecular and Cellular Biology, 15, 6188-6195, 1995, incorporated herein by reference).
In this assay, LY364 cells are grown overnight in 2 mL of synthetic complete(SC) medium (3.4 g/L YNB without amino acids and ammonium sulfate, 10 g/L ammonium sulfate and 1.4 g/L CSM-ura-trp) with glucose (2%) and without uracil and tryptophan. These cells are washed and cultured for 4 to 8 hours in 5 mL of SC medium with lactate (3%) and without uracil and tryptophan, and finally grown overnight in 5 mL of SC medium with galactose (2%) and without uracil and tryptophan. Molten (50° C.) SC agar medium with galactose (2%) and without uracil, tryptophan and histidine is adjusted to pH 6.8 with KOH, mixed with 2×10^4 cells/mL and SRIF (S-14, 10 nM) and poured into square (20×20 cm) petri dishes. Sterile filter disks are placed on the surface of the agar, and saturated with 10 μL of water or DMSO containing 5 mg/mL test peptides. After three days, the plates display a uniform cloudy background of LY264 cells growing in response to the added SRIF. […] This zone is quantified by measuring its diameter (mm), which varies according to the potency of the SRIF antagonist. Those peptides or mixtures of peptides displaying the largest zones of inhibition are further characterized.
Values are compared among samples in the same experiment, as the degree of yeast growth varies somewhat from assay to assay. For the first five sample types, in which progressively less complex mixtures of peptides are found, this assay is the primary determining factor in choosing which samples form the basis of subsequent syntheses.
Plates are read after 3 days. Samples shown in Table I in bold type are chosen for further synthesis. In Table I, all amino acids are D-amino acids and dashes represent undefined amino acid residues.

In the case of CC[C@@H](C)[C@@H](NC(=O)[C@@H](Cc1ccccc1)NC(=O)[C@@H](Cc1c[nH]cn1)NC(C)=O)C(=O)N[C@H](CCCNC(=N)N)C(=O)N[C@H](Cc1c[nH]c2ccccc12)C(=O)N[C@H](Cc1ccccc1)C(N)=O [Peptide 1, h-f-i-r-w-f] (Ac-[dH][dF][dI][dR][dW][dF]-NH2), the “spontaneous growth hormone secretory pulses” value [1] is reported as “abolition of these pulses” and the “Inhibition Zone” value [2] is reported as 18 mm.

Reference: US5925618A, “Peptides useful as somatostatin antagonists” (American Cyanamid Company, priority 1998, dated 1999)
